For 14 molecules, IC50 results are on record in US20220313701A1, “MODULATORS OF TREX1” (Constellation Pharmaceuticals, Inc., priority 2019, published 2022).

Structures are written as SMILES.

Assay [1] concerns the target T1, human TREX2 (residues M44-A279) (Homo sapiens, UniProt Q9BQ50).
T1 construct: human TREX2 (residues M44-A279, expressed in E. coli); His-Tev (His tag with TEV site) (N); made in house; host or cells: E. coli
T1 sequence (Q9BQ50 44-279 isoform Q9BQ50-1): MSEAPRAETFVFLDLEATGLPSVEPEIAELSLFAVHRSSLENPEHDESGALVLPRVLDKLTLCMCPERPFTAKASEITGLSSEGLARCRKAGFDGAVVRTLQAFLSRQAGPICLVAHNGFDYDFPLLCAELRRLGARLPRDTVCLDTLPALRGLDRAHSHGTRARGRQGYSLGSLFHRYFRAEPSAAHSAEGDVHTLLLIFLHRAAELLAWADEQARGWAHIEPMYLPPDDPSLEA
The assay can be described thus: TREX2 Biochemical Assay (fluorescence assay, degradation of dsDNA substrate). The following applies: 2.5 nM TREX2, 60 nM dsDNA substrate, 25 minutes at room temperature. Put shortly:
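Final conditions: 2.5 nM His-Tev-tagged TREX2 (E. coli-expressed), 60 nM fluorophore/quencher-labelled dsDNA, 50 mM Tris pH 7.4, 150 mM NaCl, 100 mM MgCl2, 1% DMSO; 10-point compound dose-response. Incubated 25 min at room temperature, then EDTA-quenched; fluorescence read at ex 570/em 615 nm. IC50 from four-parameter fit against pre-quenched and no-inhibitor controls.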

A further assay has as its target T2, full length human TREX1 (Homo sapiens, UniProt Q9NSU2).
T2 construct: N-terminally His-Tev tagged full length human TREX1; His-Tev (His tag with TEV site) (N); made in house; host or cells: E. coli
T2 sequence (Q9NSU2 1-314): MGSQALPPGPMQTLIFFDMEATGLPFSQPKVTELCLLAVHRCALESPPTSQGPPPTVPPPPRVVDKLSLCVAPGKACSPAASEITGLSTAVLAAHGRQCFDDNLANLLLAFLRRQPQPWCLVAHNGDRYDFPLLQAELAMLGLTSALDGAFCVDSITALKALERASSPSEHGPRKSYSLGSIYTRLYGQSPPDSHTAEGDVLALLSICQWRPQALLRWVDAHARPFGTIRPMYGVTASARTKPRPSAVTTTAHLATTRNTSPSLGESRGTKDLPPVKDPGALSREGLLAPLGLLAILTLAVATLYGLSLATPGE
The assay can be described thus: TREX1 Biochemical Assay (fluorescence assay, degradation of dsDNA substrate). The conditions noted are these: 150 pM TREX1, 60 nM dsDNA substrate, 25 minutes at room temperature. Put shortly:
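N-terminally His-Tev-tagged enzyme expressed in E. coli, 150 pM, with 60 nM dual-labelled dsDNA (TEX615/quencher) in pH 7.4 Tris buffer with MgCl2, 1% DMSO; 10-point dose-response, 25 min at room temperature, then EDTA quench. Fluorescence at 615 nm (excitation 570 nm); IC50 from four-parameter fit against pre-quenched and no-inhibitor controls.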

A word on the IC50: it is the concentration that inhibits the measured activity by half. With `OC1(c2ccc(F)cc2)CCN(c2nccc(-n3cccn3)n2)CC1` [Example 80, 1-(4-(1H-pyrazol-1-yl)pyrimidin-2-yl)-4-(4-fluorophenyl)piperidin-4-ol], the IC50 was greater than 100 µM in assay [1] and 1 to 10 µM at full length human TREX1.

`OC1(c2ccc(F)cc2)CCN(c2ccc3nccn3n2)CC1` [Example 81, 4-(4-fluorophenyl)-1-(imidazo[1,2-b]pyridazin-6-yl)piperidin-4-ol]: the IC50 was greater than 100 µM in assay [1] and 1 to 10 µM against full length human TREX1.

As for `OC1(c2ccc(F)cc2)CCN(c2cnc3ccccc3n2)CC1` [Example 82, 4-(4-fluorophenyl)-1-(quinoxalin-2-yl)piperidin-4-ol], the results for the IC50 (in assay [1]; at full length human TREX1) were greater than 100 µM and 1 to 10 µM, respectively.

As to `OC1(c2ccc(F)cc2)CCN(c2ccc3ccccc3n2)CC1` [Example 83, 4-(4-fluorophenyl)-1-(quinolin-2-yl)piperidin-4-ol], the IC50 in assay [1] is greater than 100 µM; against full length human TREX1, greater than 10 µM.

For `OC1(c2ccc(F)cc2)CCN(c2cncc(Cl)n2)CC1` [Example 84, 1-(6-chloropyrazin-2-yl)-4-(4-fluorophenyl)piperidin-4-ol], the 50% inhibitory concentration (IC50) in assay [1] is greater than 100 µM; at full length human TREX1, 1 to 10 µM.

As to `COc1cc(N2CCC(O)(c3ccc(F)cc3)CC2)ncn1` [Example 85, 4-(4-fluorophenyl)-1-(6-methoxypyrimidin-4-yl)piperidin-4-ol], the IC50 in assay [1] is greater than 100 µM; at full length human TREX1, 1 to 10 µM.

In the case of `OC1(c2ccc(F)cc2)CCN(c2ccccn2)CC1` [Example 86, 4-(4-fluorophenyl)-1-(pyridin-2-yl)piperidin-4-ol], the values for the IC50 (in assay [1]; against full length human TREX1) were greater than 100 µM and greater than 10 µM, respectively.

As for `Cc1nn(C)cc1-c1cc(N2CCC(O)(c3ccc(F)c(F)c3)CC2)cnn1` [Example 87, 4-(3,4-difluorophenyl)-1-(6-(1,3-dimethyl-1H-pyrazol-4-yl)pyridazin-4-yl)piperidin-4-ol], the IC50 was greater than 100 µM in assay [1] and 1 to 10 µM against full length human TREX1.

For `Cc1nn(C)cc1-c1cnnc(N2CCC(O)(c3ccc(F)c(F)c3)CC2)c1` [Example 88, 4-(3,4-difluorophenyl)-1-(5-(1,3-dimethyl-1H-pyrazol-4-yl)pyridazin-3-yl)piperidin-4-ol], the IC50 is greater than 100 µM in assay [1] and 0.1 to 1 µM at full length human TREX1.

`Cc1ncc(-c2cnn(C)c2)nc1N1CCC(O)(c2ccc(F)c(F)c2)CC1` [Example 89, 4-(3,4-difluorophenyl)-1-(3-methyl-6-(1-methyl-1H-pyrazol-4-yl)pyrazin-2-yl)piperidin-4-ol]: the values for the IC50 (in assay [1]; against full length human TREX1) were greater than 100 µM and 1 to 10 µM, respectively.

In the case of `Cc1ncc(N2CCC(O)(c3ccc(F)c(F)c3)CC2)nc1-c1cnn(C)c1` [Example 90, 4-(3,4-difluorophenyl)-1-(5-methyl-6-(1-methyl-1H-pyrazol-4-yl)pyrazin-2-yl)piperidin-4-ol], the IC50 was greater than 100 µM in assay [1] and 0.1 to 1 µM on full length human TREX1.

`Cc1nc(-c2cn(C)nc2C)c(F)c(N2CCC(O)(c3ccc(F)c(F)c3)CC2)n1` [Example 91, 4-(3,4-difluorophenyl)-1-(6-(1,3-dimethyl-1H-pyrazol-4-yl)-5-fluoro-2-methylpyrimidin-4-yl)piperidin-4-ol]: the IC50 in assay [1] is greater than 100 µM; against full length human TREX1, 0.1 to 1 µM.

Consider `Cc1cc(C2(O)CCN(c3cncc(-c4cn(C)nc4C)n3)CC2)ccc1F` [Example 92, 1-(6-(1,3-dimethyl-1H-pyrazol-4-yl)pyrazin-2-yl)-4-(4-fluoro-3-methylphenyl)piperidin-4-ol], for which the IC50 in assay [1] is greater than 100 µM; at full length human TREX1, 0.1 to 1 µM.

On to `Cc1nn(C)cc1-c1cc(C(N)=O)cc(N2CCC(O)(c3cc(F)c(F)c(F)c3)CC2)n1` [Example 93, 2-(1,3-dimethyl-1H-pyrazol-4-yl)-6-(4-hydroxy-4-(3,4,5-trifluorophenyl)piperidin-1-yl)isonicotinamide], for which the values for the IC50 (in assay [1]; against full length human TREX1) were greater than 100 µM and 0.1 to 1 µM, respectively.
